In ChEMBL document CHEMBL1149929, “Novel 2-(2-furo[3,2-b]pyridinyl) pyrrolidines: potent neuronal nicotinic acetylcholine receptor ligands” (Bioorg Med Chem Lett, 1997):

Experiments:
[1] = Tested for functional activity against neuronal nicotinic acetylcholine receptor(nAChR) expressed in IMR-32 cells using isotopic rubidium efflux assay.; type: cell-based; details: Homo sapiens
[2] = biological target: T1, Neuronal acetylcholine receptor; alpha4/beta2 (Homo sapiens, UniProt P17787+P43681); test: Tested for functional activity against neuronal nicotinic acetylcholine receptor(nAChR) expressed in K177 cells using isotopic rubidium efflux assay.; type: cell-based
T1 sequence (P17787 whole entry): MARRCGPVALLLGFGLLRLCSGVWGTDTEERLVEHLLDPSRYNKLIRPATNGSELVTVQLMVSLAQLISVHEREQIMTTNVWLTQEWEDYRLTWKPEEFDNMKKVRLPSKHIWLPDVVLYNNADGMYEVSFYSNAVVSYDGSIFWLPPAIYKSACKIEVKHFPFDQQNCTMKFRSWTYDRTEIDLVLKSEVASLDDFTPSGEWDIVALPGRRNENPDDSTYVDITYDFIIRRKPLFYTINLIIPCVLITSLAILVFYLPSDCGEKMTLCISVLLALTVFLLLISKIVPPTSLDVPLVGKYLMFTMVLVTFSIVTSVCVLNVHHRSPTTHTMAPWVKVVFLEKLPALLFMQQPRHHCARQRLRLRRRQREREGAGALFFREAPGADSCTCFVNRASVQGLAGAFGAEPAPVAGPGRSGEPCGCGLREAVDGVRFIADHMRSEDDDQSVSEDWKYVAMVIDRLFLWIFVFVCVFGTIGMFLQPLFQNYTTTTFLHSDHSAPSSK
T1 sequence (P43681 whole entry): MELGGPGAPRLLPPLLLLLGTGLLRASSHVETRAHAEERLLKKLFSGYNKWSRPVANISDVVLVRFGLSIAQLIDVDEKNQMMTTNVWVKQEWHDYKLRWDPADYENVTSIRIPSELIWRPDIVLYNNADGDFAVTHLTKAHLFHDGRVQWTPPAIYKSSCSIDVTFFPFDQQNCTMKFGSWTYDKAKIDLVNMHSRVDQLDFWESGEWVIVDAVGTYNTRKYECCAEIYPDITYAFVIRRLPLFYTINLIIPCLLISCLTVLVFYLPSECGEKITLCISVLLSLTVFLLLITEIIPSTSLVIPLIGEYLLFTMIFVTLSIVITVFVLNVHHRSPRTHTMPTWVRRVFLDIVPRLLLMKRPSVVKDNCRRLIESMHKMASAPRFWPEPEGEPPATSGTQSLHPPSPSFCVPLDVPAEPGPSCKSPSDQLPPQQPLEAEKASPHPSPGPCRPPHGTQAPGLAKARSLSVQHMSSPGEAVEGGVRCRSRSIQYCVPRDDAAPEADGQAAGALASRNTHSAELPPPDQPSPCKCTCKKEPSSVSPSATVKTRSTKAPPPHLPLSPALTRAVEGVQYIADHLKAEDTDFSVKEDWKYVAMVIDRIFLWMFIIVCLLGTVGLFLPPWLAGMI

[3] = species: Rattus norvegicus; test: Tested for nAChR-mediated dopamine release from rat striatal slices.; type: functional
[4] = species: Rattus norvegicus; test: Percent intrinsic activity relative to 100 uM (S)-nicotine.; type: functional
[5] = biological target: T2, Acetylcholine receptor subunit alpha (Homo sapiens, UniProt P02708); test: Tested for functional activity against alpha-1 neuronal nicotinic acetylcholine receptor(nAChR) expressed in TE671 cells using isotopic rubidium efflux assay.; type: cell-based, TE-671
T2 sequence (P02708 whole entry): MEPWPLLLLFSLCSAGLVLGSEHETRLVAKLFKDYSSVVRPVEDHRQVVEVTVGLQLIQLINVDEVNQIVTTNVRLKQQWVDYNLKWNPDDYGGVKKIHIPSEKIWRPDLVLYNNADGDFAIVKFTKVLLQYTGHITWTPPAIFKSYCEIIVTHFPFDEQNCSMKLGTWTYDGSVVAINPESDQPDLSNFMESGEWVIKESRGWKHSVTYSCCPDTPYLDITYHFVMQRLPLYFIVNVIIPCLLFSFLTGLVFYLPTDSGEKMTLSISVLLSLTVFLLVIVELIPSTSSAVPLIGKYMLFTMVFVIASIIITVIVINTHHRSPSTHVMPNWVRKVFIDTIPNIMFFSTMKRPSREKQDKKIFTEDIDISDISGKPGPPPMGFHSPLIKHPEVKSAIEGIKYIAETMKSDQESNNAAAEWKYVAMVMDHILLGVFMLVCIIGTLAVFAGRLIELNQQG

[6] = biological target: T1, Neuronal acetylcholine receptor; alpha4/beta2; test: (§1) Percent intrinsic activity against K177 cells relative to 100 uM (S)-nicotine.; type: functional, cell-based
[7] = biological target: T2, Acetylcholine receptor subunit alpha; test: Percent intrinsic activity against TE671 cells relative to 100 uM (S)-nicotine.; type: functional, cell-based; details: TE-671
[8] = Percent intrinsic activity against IMR-32 cells relative to 100 uM (S)-nicotine.; type: functional, Homo sapiens
[9] = biological target: Neuronal acetylcholine receptor; test: Tested for neuronal nicotinic acetylcholine receptor (nAChR) binding in a whole rat brain preparation using […] as the radioligand.
[10] = biological target: T2, Acetylcholine receptor subunit alpha; test: as §1; type: functional, cell-based

Structure (SMILES) | EC50 [1] [µM] | EC50 [2] [µM] | EC50 [3] [µM] | Intrinsic activity [4] [%] | EC50 [5] [µM] | Intrinsic activity [6] [%] | Intrinsic activity [7] [%] | Intrinsic activity [8] [%] | Ki [9] [µM] | Intrinsic activity [10] [%]
Cc1cc([C@@H]2CCCN2C)on1 [ABT-418] | 64 | 10.6 | 380 | 100 | 411 | 93 | 38 | 85 |  | 
CN1CCC[C@H]1COc1cccnc1 | 24 | 0.75 | 107 | 74 | 34 | 100 | 40 | 77.2 |  | 
CN1CCC[C@@H]1c1cc2ncccc2o1 | > 1000 | > 1000 |  |  |  | 5.7 |  | 15.2 | 0.0979 | 
CN1CCC[C@H]1c1cccnc1 [NICOTINE] | 21 |  |  | 100 | 180 | 100 | 100 | 100 |  | 
c1cnc2cc([C@@H]3CCCN3)oc2c1 | > 1000 |  |  |  |  |  |  | 9.2 | 0.0758 | 7.4
c1cnc2cc([C@H]3CCCN3)oc2c1 | 41.5 | 11 |  |  |  | 30 |  | 57.8 | 0.00511 | 
CN1CCC[C@H]1c1cc2ncccc2o1 | > 1000 | 3.2 | 141 | 43 | > 100 | 81 | 18.9 | 10.6 | 0.00273 | 
